IC50 data for 6 compounds are collected here from EP4772514A1, “MACROCYCLIC COMPOUNDS, PREPARATION METHOD THEREFOR, AND USE THEREOF” (Genfleet Therapeutics (Shanghai) Inc., priority 2023, dated 2025).

Common to all, as to type: cell-based
For test [1], the system named is AsPC-1 cells. As to the kind of experiment: 3D cell proliferation assay (CellTiter Glo-3D) in AsPC-1 cells. The conditions noted are these: ASPC1, 120 h; AsPC-1, human pancreatic cancer cell strain, KRAS G12D mutation; 3D culture, 2% FBS, 5 days; read-out: AsPC-1 AP IC50. An excerpt:
MIA PaCa-2 cells were purchased from ATCC, Cat. No. CRL-1420; AsPC-1 cells were purchased from ATCC, Cat. No. CRL-1682; NCI-H441 cells were purchased from ATCC, Cat. No. HTB-174; NCI-H1975 cells were purchased from ATCC, Cat. No. CRL-5908; DMEM medium was purchased from Gibco, Cat. No. 11995-065; RPMI-1640 medium was purchased from Gibco, Cat. No. 11875-093; FBS was purchased from Gibco, Cat. No. 10099-141C; penicillin/streptomycin double-antibiotic solution (PS) was purchased from Gibco, Cat. No. 15140-122; Horse serum was purchased from Gibco, Cat. No. 16050130; trypsin (containing EDTA) was purchased from Gibco, Cat. No. 25200-072; DMSO was purchased from VWRAMRESCO, Cat. No. 0231-500ML; 384-well cell culture plates were purchased from Corning, Cat. No. 3830; white-bottomed, opaque 384-well assay plates were purchased from Corning, Cat. No. 3570; CellTiter Glo-3D kit was purchased from Promega, Cat. No. G9683; cell counter was purchased from CHEMOMETEC, model: NC-200; microplate reader was purchased from PerkinElmer, model: EnVision.
MIA PaCa-2, a human pancreatic cancer cell strain endogenously containing a KRAS^G12Cmutation, was cultured in a complete medium containing DMEM + 10% FBS + 2.5% Horse serum + 1% PS. AsPC-1, a human pancreatic cancer cell strain endogenously containing a KRAS^G12D mutation, was cultured in a complete medium containing RPMI-1640 + 10% FBS + 1% PS. NCI-H441 cells, a human lung cancer cell strain endogenously containing a KRAS^G12V mutation, were cultured in a complete medium containing RPMI-1640 + 10% FBS + 1% PS. NCI-H1975, a KRAS wild-type human lung cancer cell strain whose cell proliferation […], was cultured in a complete medium containing RPMI-1640 + 10% FBS + 1% PS.
The cells were digested with trypsin (containing EDTA), collected in their respective low-serum complete media containing 2% FBS (for MIA Paca-2 cell culture: DMEM + 2% FBS + 0.5% Horse serum + 1% PS), and counted. After the cell density was adjusted as required, MIA PaCa-2 cells (200 cells/well), AsPC-1 cells (800 cells/well), NCI-H441 cells (800 cells/well), or NCI-H1975 cells (400 cells/well) were seeded into a 384-well cell culture plate, with the volume of the medium in each well being 45 µL. The cell culture plate was incubated in an incubator at 37 °C with 5% CO2 overnight. A series of 3.16-fold gradient dilutions of a 1000× compound stock solution were prepared with DMSO, and then diluted 100-fold with the complete medium containing 2% FBS described above to give 10× compound stock solutions. On the day after cell seeding, 5 µL of the 10× compound stock solution was added to each cell culture well. As a result, the final concentration of the compound in the cell culture well became 1×, and the DMSO content in the well was 0.1%. In addition to the compound-treated wells described above, cell-containing DMSO control wells (with 5 µL of the complete medium containing 1% DMSO added to each well) and cell-free medium control wells (containing 50 µL of the complete medium with 2% FBS) were also set. The culture plate was incubated in an incubator at 37 °C with 5% CO2 for another 5 days, and then 30 µL of CellTiter-Glo working solution was added to each well. The mixture was well mixed, incubated for 30 min, left to stand at room temperature for 30 min, and then transferred to a white-bottomed, opaque 384-well assay plate at 40 µL/well. The chemiluminescence values (RLU) were measured using a microplate reader, and the cell proliferation inhibition rate for each well was calculated: IR(%) = (RLUDMSO - RLUcompound)/(RLUDMSO - RLUblank) × 100%, where RLUDMSO is the average RLU signal value from the DMSO control well samples, RLUblank is the average RLU signal value from the medium control well samples, and RLUcompound is the RLU signal value from the compound-treated well samples. […]

Test [2] deals with NCI-H441 cells. As to the kind of experiment: 3D cell proliferation assay (CellTiter Glo-3D) in NCI-H441 cells. Particulars: Homo sapiens, NCI-H441, 120 h, NCI-H441, human lung cancer cell strain, KRAS G12V mutation; 3D culture, 2% FBS, 5 days; read-out: H441 AP IC50. In a few lines:
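KRAS^G12V NCI-H441 and KRAS^G12D AsPC-1 cells (800 cells/well each) grown in RPMI-1640 with 2% FBS and treated the day after seeding with 3.16-fold compound dilutions (0.1% DMSO) for 5 days at 37 °C. Viability by CellTiter-Glo 3D luminescence; inhibition versus DMSO and cell-free controls, IC50 from four-parameter fit.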

The subject of test [3] is p-ERK. Briefly: Cell p-ERK assay (HTRF, Advance ERK phospho-T202/Y204 kit) in NCI-H441 cells. The conditions noted are these: Homo sapiens, NCI-H441, 3 h, NCI-H441, human non-small cell lung cancer cell strain, KRAS G12V mutation; 3 h compound incubation. In a few lines:
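Cells with endogenous KRAS mutations, AsPC-1 (G12D) and NCI-H441 (G12V), were plated overnight and then exposed to compound for 3 h at 37 °C (final 0.1% DMSO, 10% FBS medium). ERK T202/Y204 phosphorylation in lysates was read by HTRF, and IC50 was derived from four-parameter curves of inhibition relative to DMSO and blank controls.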
On the technique in general: TR-FRET usually uses a lanthanide donor and a delayed reading to cut background.

In test [4] the test system is p-ERK. As to the kind of experiment: Cell p-ERK assay (HTRF, Advance ERK phospho-T202/Y204 kit) in AsPC-1 cells. The conditions noted are these: ASPC1; AsPC-1, human pancreatic cancer cell strain, KRAS G12D mutation; 3 h compound incubation. As for the experimental part:
AsPC-1 cells were purchased from ATCC, Cat. No. CRL-1682; NCI-H441 cells were purchased from ATCC, Cat. No. HTB-174; RPMI-1640 medium was purchased from Gibco, Cat. No. 11875-093; FBS was purchased from Gibco, Cat. No. 10099-141C; penicillin/streptomycin double-antibiotic solution (PS) was purchased from Gibco, Cat. No. 15140-122; trypsin (containing EDTA) was purchased from Gibco, Cat. No. 25200-072; DMSO was purchased from VWRAMRESCO, Cat. No. 0231-500ML; 96-well cell culture plates were purchased from Corning, Cat. No. 3599; white-bottomed, opaque 96-well plates were purchased from Cisbio, Cat. No. 66PL96025; Advance ERK phospho-T202/Y204 kit was purchased from Cisbio, Cat. No. 64AERPEH; cell counter was purchased from CHEMOMETEC, model: NC-200; microplate reader was purchased from PerkinElmer, model: EnVision.
AsPC-1, a human pancreatic cancer cell strain endogenously containing a KRAS^G12D mutation, was cultured in a complete medium containing RPMI-1640 + 10% FBS + 1% PS. NCI-H441, a human non-small cell lung cancer cell strain endogenously containing a KRAS^G12V mutation, was cultured in a complete medium containing RPMI-1640 + 10% FBS + 1% PS.
The cells were digested with trypsin (containing EDTA), collected in their corresponding complete media, and counted. The density of the cell suspensions was adjusted with their corresponding complete media, and AsPC-1 cells (10000 cells/well) or NCI-H441 cells (20000 cells/well) were seeded into a 96-well cell culture plate, with the volume of the medium in each well being 80 µL. The cell culture plate was incubated in an incubator at 37 °C with 5% CO2 overnight. A series of 3.16-fold gradient dilutions of a 1000× compound stock solution were prepared with DMSO, and then diluted 200-fold with the complete medium described above to give 5× compound stock solutions. On the day after cell seeding, 20 µL of the 5× compound stock solution was added to each cell culture well. As a result, the final concentration of the compound in the cell culture well became 1×, and the DMSO content in the well was 0.1%. In addition to the compound-treated wells described above, cell-containing DMSO control wells were also set. A complete medium containing 0.5% DMSO was added at 20 µL/well. After the mixture was well mixed, the culture plate was incubated in the incubator at 37 °C with 5% CO2 for another 3 h. The medium was then removed from the culture wells, and 50 µL of cell lysis buffer (from Advance ERK phospho-T202/Y204 kit) was added to each well. The mixture was well mixed, incubated for 30 min, and then transferred to a white-bottomed, opaque 96-well assay plate at 16 µL/well, and separately, 16 µL of cell lysis buffer was added to additional wells (serving as blank wells) in the assay plate. After the transfer was completed, 4 µL of p-ERK HTRF antibody mixture (from Advance ERK phospho-T202/Y204 kit) was added to each well of the assay plate, followed by a 4-hour incubation. The HTRF signal values (RLU) were then measured using a microplate reader, and the inhibition rate of the compound against p-ERK levels was calculated as follows: IR(%) = (RLUDMSO - RLUcompound)/(RLUDMSO - RLUblank) × 100%, where RLUDMSO is the average HTRF signal value from the DMSO control well samples, RLU is the average HTRF signal value from the blank well samples, and RLUcompound is the HTRF signal value from the compound-treated well samples. Using an XLfit software, the IR(%) values were plotted against the logarithm of the compound concentrations, and the dose-response curves were fitted using the four-parameter method to calculate the IC50 values.

As for `CCn1cc2c(c1-c1cc(C#CCN3CCC(C#N)CC3)cnc1[C@H](C)OC)CC(C)(C)COC(=O)[C@@H]1CCCN(N1)C(=O)[C@@H](NC(=O)[C@H]1[C@H](C)[C@@H]1C)Cc1nc(cs1)/C=C/2` (atropisomer, axis not shown; (Ra)) [Compound Z49, (1r,2R,3S)-N-((4 ^2Z,8^3S,2E,6S)-(Ra)-1^5-(5-(3-(4-cyanopiperidin-1-yl)prop-1-yn-1-yl)-2-((S)-1-methoxyethyl)pyridin-3-yl)-1^1-ethyl-12,12-dimethyl-7,9-dioxo-8^1,8^2,8^3,8^4,8^5,8^6-hexahydro-1^1H-10-oxa-4(4,2)-thiazola-8(1,3)-pyridazina-1(3,4)-pyrrolacyclotridecaphan-2-en-6-yl)-2,3-dimethylcyclopropane-1-carboxamide], the IC50 was 0.08 nM in test [1], 0.14 nM in test [2], 0.17 nM in test [3] and 0.13 nM in test [4].

For `CCn1cc2c(c1-c1cc(C#CCN3CCC(C#N)(CN)CC3)cnc1[C@H](C)OC)CC(C)(C)COC(=O)[C@@H]1CCCN(N1)C(=O)[C@@H](NC(=O)[C@H]1[C@H](C)[C@@H]1C)Cc1nc(cs1)/C=C/2` (atropisomer, axis not shown; (Ra)) [Compound Z65], the IC50 in test [1] stood at 0.1 nM; in test [2], 0.17 nM; in test [3], 0.58 nM; in test [4] it was 0.14 nM.

On to `CCn1cc2c(c1-c1cc(C#CCN3CCCOCC3)cnc1[C@H](C)OC)CC(C)(C)COC(=O)[C@@H]1CCCN(N1)C(=O)[C@@H](NC(=O)[C@H]1[C@H](C)[C@@H]1C)Cc1nc(cs1)/C=C/2` (atropisomer, axis not shown; (Ra)) [Compound Z69, (1r,2R,3S)-N-((4^2Z,8^3S,2E,6S)-(Ra)-1^5-(5-(3-(1,4-oxazepan-4-yl)prop-1-yn-1-yl)-2-((S)-1-methoxyethyl)pyridin-3-yl)-1^1-ethyl-12,12-dimethyl-7,9-dioxo-8^1,8^2,8^3,8^4,8^5,8^6-hexahydro-1^1H-10-oxa-4(4,2)-thiazola-8(1,3)-pyridazina-1(3,4)-pyrrolacyclotridecaphan-2-en-6-yl)-2,3-dimethylcyclopropane-1-carboxamide], for which the half-inhibitory concentration (IC50) in test [1] was found to be 0.67 nM; in test [2] it was 0.58 nM; in test [3] it was 0.9 nM; in test [4] it was 1.54 nM.

For `CO[C@@H](C)c1ncc(C#CCN2CCC(C#N)(CN)CC2)cc1-c1c2c(nn1C(C)C)/C=C/c1csc(n1)C[C@H](NC(=O)[C@H]1[C@H](C)[C@@H]1C)C(=O)N1CCC[C@H](N1)C(=O)OCC(C)(C)C2` (atropisomer, axis not shown; (Ra)) [Compound Z62], the IC50 in test [1] was 5.12 nM; in test [2] it was 4.56 nM; in test [3], 3.5 nM; in test [4], 4.9 nM.

Regarding `CO[C@@H](C)c1ncc(C#CCN2CCS(=O)(=O)CC2)cc1-c1c2c(nn1C(C)C)/C=C/c1csc(n1)C[C@H](NC(=O)[C@H]1[C@H](C)[C@@H]1C)C(=O)N1CCC[C@H](N1)C(=O)OCC(C)(C)C2` (single isomer, unassigned) [Compound Z15], the half-maximal inhibitory concentration (IC50) in test [1] is 10.6 nM; in test [2], 4.31 nM; in test [3], 6.74 nM; in test [4], 20.3 nM.

On to `CCn1nc2c(c1-c1cc(C#CCN3CCC(C#N)(CN)CC3)cnc1[C@H](C)OC)CC(C)(C)COC(=O)[C@@H]1CCCN(N1)C(=O)[C@@H](NC(=O)[C@H]1[C@H](C)[C@@H]1C)Cc1nc(cs1)/C=C/2` [Compound Z119], for which the 50% inhibitory concentration (IC50) in test [1] was found to be 2.39 nM; in test [2], 1.45 nM; in test [3], 1.81 nM; in test [4], 2.29 nM.

Usually IC50 stands for the concentration needed to halve the response being measured.
